Results from patent US10738015B2, “1,3-diaza-spiro-[3.4]-octane derivatives” (priority 2017, dated 2020).
Where two headings read alike, the source gives them in different places.

Tests used:
[1] = biological target: human nociceptin/orphanin FQ peptide (hNOP) receptor (Homo sapiens (Human), UniProt P41146); test: hNOP receptor binding assay (SPA)
Experimental: Human Nociceptin/Orphanin FQ Peptide (hNOP) Receptor Binding Assay
The hNOP receptor binding assay was performed as homogeneous SPA-assay (scintillation proximity assay) using the assay buffer 50 mM TRIS-HCl, 10 mM MgCl2, 1 mM EDTA (pH 7.4). The final assay volume (250 μl/well) included 0.5 nM of [leucyl-^3H]nociceptin as ligand (PerkinElmer Life Sciences. Inc. Boston, Mass. USA) and either test compound in dilution series or 1 μM unlabelled nociceptin for determination of unspecific binding. The test compound was diluted with 25% DMSO in H2O to yield a final 0.5% DMSO concentration which also served as a respective vehicle control. The assay was started by adding wheat germ agglutinin coated SPA beads (GE Healthcare UK Ltd. Buckinghamshire. UK) which had been preloaded with hNOP receptor membranes (PerkinElmer Life Sciences. Inc. Boston, Mass. USA). After incubation for 60 minutes at RT and centrifugation for 20 minutes at 500 rpm the signal rate was measured by means of a 1450 Microbeta Trilux ß-counter (PerkinElmer Life Sciences/Wallac. Turku. Finland). Half-maximal inhibitory concentration (IC50) values reflecting 50% displacement of [^3H]nociceptin-specific receptor binding were calculated by nonlinear regression analysis and Ki values were calculated by using the Cheng-Prusoff equation. (Cheng and Prusoff. 1973).

[2] = biological target: human mu-opioid peptide (hMOP) receptor (Homo sapiens (Human), UniProt P35372); test: hMOP receptor binding assay (SPA)
Sequence of human mu-opioid peptide (hMOP) receptor (P35372 whole entry): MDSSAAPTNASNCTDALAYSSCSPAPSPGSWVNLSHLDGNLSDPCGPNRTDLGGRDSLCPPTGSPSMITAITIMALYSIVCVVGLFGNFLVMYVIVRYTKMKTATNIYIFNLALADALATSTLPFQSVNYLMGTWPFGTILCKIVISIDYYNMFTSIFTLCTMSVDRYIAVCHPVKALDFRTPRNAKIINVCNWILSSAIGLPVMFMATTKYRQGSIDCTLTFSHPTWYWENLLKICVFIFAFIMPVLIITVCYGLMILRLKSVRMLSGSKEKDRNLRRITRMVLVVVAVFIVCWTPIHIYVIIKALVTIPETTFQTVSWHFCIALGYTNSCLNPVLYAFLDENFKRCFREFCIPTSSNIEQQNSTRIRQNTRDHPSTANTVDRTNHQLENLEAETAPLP
Experimental: Human Mu-Opioidpeptide (hMOP) Receptor Binding Assay
The hMOP receptor binding assay was performed as homogeneous SPA-assay (scintillation proximity assay) using the assay buffer 50 mM TRIS-HCl (pH 7.4) supplemented with 0.052 mg/ml bovine serum albumin (Sigma-Aldrich Co. St. Louis, Mo.). […] The assay was started by adding wheat germ agglutinin coated SPA beads (GE Healthcare UK Ltd. Buckinghamshire. UK) which had been preloaded with hMOP receptor membranes (PerkinElmer Life Sciences. Inc. Boston, Mass. USA).

[3] = Ki, displacement of [leucyl-3H]nociceptin, hNOP receptor membranes, read-out: hNOP Ki [nM] or % inhibition at 1 μM
[4] = read-out: hMOP Ki [nM] or % inhibition at 1 μM
[5] = Ki, displacement of [3H]naloxone, hMOP receptor membranes, read-out: hMOP Ki [nM] or % inhibition at 1 μM

Row | SMILES | Ki [1, 3] [nM] | inhibition at 1 µM [2, 4] [%] | Ki [1] [nM] | Ki [2, 5] [nM] | Ki [2] [nM]
1 | CN(C)[C@]1(c2ccccc2)C[C@@]2(CN(CC(N)=O)C(=O)N2)C1 [SC-1, Cis-2-(2-(dimethylamino)-6-oxo-2-phenyl-5,7-diazaspiro[3.4]octan-7-yl)acetamide] | 200 | 19 | – | – | –
2 | CN(C)[C@]1(c2ccccc2)C[C@@]2(CN(CC(=O)N3CCS(=O)(=O)CC3)C(=O)N2)C1 [SC-2, cis-2-(dimethylamino)-7-(2-(1,1-dioxidothiomorpholino)-2-oxoethyl)-2-phenyl-5,7-diazaspiro[3.4]octan-6-one] | 850 | 12 | – | – | –
3 | COc1nc(C#N)ncc1N1C[C@]2(C[C@](c3ccccc3)(N(C)C)C2)NC1=O [SC-3, Cis-5-(2-(dimethylamino)-6-oxo-2-phenyl-5,7-diazaspiro[3.4]octan-7-yl)-4-methoxypyrimidine-2-carbonitrile] | – | – | 370 | – | –
4 | CN(C)[C@]1(c2ccccc2)C[C@]2(CN(CC(=O)N3CCS(=O)(=O)CC3)C(=O)N2)C1 [SC-4, trans-2-(dimethylamino)-7-(2-(1,1-dioxidothiomorpholino)-2-oxoethyl)-2-phenyl-5,7-diazaspiro[3.4]octan-6-one] | 860 | – | – | 15 | –
5 | COc1nc(C#N)ncc1N1C[C@]2(C[C@@](c3ccccc3)(N(C)C)C2)NC1=O [SC-5, trans-5-(2-(dimethylamino)-6-oxo-2-phenyl-5,7-diazaspiro[3.4]octan-7-yl)-4-methoxypyrimidine-2-carbonitrile] | 800 | – | – | 99 | –
6 | CN(C)[C@]1(c2ccccc2)C[C@@]2(CN(CC(=O)N3CCS(=O)(=O)CC3)C(=O)N2CC2CCC2)C1 [SC-6, Cis-5-(cyclobutylmethyl)-2-(dimethylamino)-7-(2-(1,1-dioxidothiomorpholino)-2-oxoethyl)-2-phenyl-5,7-diazaspiro[3.4]octan-6-one] | – | – | 1 | – | –
7 | CN(C)[C@]1(c2ccccc2)C[C@]2(CN(CC(=O)N3CCS(=O)(=O)CC3)C(=O)N2CC2CCC2)C1 [SC-7, trans-5-(cyclobutylmethyl)-2-(dimethylamino)-7-(2-(1,1-dioxidothiomorpholino)-2-oxoethyl)-2-phenyl-5,7-diazaspiro[3.4]octan-6-one] | 230 | – | – | 2 | –
8 | CN(C)[C@]1(c2ccccc2)C[C@]2(CN(CC(N)=O)C(=O)N2CC2CCC2)C1 [SC-8, cis-2-(5-(cyclobutylmethyl)-2-(dimethylamino)-6-oxo-2-phenyl-5,7-diazaspiro[3.4]octan-7-yl)acetamide] | 3 | – | – | 100 | –
9 | CN(C)[C@]1(c2ccccc2)C[C@]2(CN(CC(N)=O)C(=O)N2CC2CCC2)C1 [SC-9, Trans-2-(5-(cyclobutylmethyl)-2-(dimethylamino)-6-oxo-2-phenyl-5,7-diazaspiro[3.4]octan-7-yl)acetamide] | 380 | – | – | – | 48
10 | COc1nc(C#N)ncc1N1C[C@]2(C[C@](c3ccccc3)(N(C)C)C2)N(CC2CCC2)C1=O [SC-10, cis-5-(5-(cyclobutylmethyl)-2-(dimethylamino)-6-oxo-2-phenyl-5,7-diazaspiro[3.4]octan-7-yl)-4-methoxypyrimidine-2-carbonitrile] | 2 | – | – | 157 | –
11 | COc1nc(C#N)ncc1N1C[C@]2(C[C@@](c3ccccc3)(N(C)C)C2)N(CC2CCC2)C1=O [SC-11, trans-5-(5-(cyclobutylmethyl)-2-(dimethylamino)-6-oxo-2-phenyl-5,7-diazaspiro[3.4]octan-7-yl)-4-methoxypyrimidine-2-carbonitrile] | 99 | – | – | 3 | –
12 | Cc1nc(N2CCOCC2)ncc1N1C[C@]2(C[C@](c3ccccc3)(N(C)C)C2)NC1=O [SC-12, cis-2-(dimethylamino)-7-(4-methyl-2-morpholinopyrimidin-5-yl)-2-phenyl-5,7-diazaspiro[3.4]octan-6-one] | 630 | 13 | – | – | –
13 | Cc1cc(N2CCC2)ncc1N1C[C@]2(C[C@](c3ccccc3)(N(C)C)C2)NC1=O [SC-13, cis-7-(6-(azetidin-1-yl)-4-methylpyridin-3-yl)-2-(dimethylamino)-2-phenyl-5,7-diazaspiro[3.4]octan-6-one] | 860 | 18 | – | – | –
